Source: ChEMBL document CHEMBL1147613, “A series of spirocyclic analogues as potent inhibitors of bacterial phenylalanyl-tRNA synthetases” (Bioorg Med Chem Lett, 2004)

These compounds were tested against T1, Phenylalanine--tRNA ligase, mitochondrial (Homo sapiens, UniProt O95363) (assay: Inhibitory activity against human phenylalanyl-tRNA synthetase was determined).
T1 sequence (O95363 whole entry): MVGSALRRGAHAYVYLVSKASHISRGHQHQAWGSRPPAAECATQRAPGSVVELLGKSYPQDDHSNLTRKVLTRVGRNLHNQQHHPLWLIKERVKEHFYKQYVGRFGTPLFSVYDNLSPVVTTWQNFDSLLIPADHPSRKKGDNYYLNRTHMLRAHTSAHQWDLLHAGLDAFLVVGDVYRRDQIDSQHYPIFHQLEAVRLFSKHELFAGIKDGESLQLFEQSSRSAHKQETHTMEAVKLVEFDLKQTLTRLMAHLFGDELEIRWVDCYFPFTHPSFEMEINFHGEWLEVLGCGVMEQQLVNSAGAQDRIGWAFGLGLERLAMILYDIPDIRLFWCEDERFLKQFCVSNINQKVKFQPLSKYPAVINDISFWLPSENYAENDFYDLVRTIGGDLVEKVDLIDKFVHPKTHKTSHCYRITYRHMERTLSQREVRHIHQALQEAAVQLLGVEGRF

Structure (SMILES)	IC50 [µM]
O=C1[C@H]2[C@@H](C(=O)N1c1ccc(Cl)c(Cl)c1)C1(N[C@H]2c2ccccc2)C(=O)c2ccccc2C1=O	> 100
Cc1ccc(N2C(=O)[C@H]3[C@H](c4ccccc4)NC4(C(=O)c5ccccc5C4=O)[C@H]3C2=O)cc1Cl	> 100
Cc1ccc(N2C(=O)[C@H]3[C@@H](C2=O)C2(N[C@H]3c3ccccc3)C(=O)c3ccccc3C2=O)cc1Cl	> 100
COc1ccccc1N1C(=O)[C@@H]2C(c3ccccc3C)OC3(C(=O)c4ccccc4C3=O)[C@@H]2C1=O (some centres undefined)	> 100
Cc1ccc(N2C(=O)[C@H]3C(c4ccccc4)OC4(C(=O)c5ccccc5C4=O)[C@H]3C2=O)cc1Cl (some centres undefined)	> 100
COC(=O)C1N[C@@H](c2ccccc2)[C@H]2C(=O)N(c3ccc(Cl)c(Cl)c3)C(=O)[C@@H]12 (some centres undefined)	> 100
O=C1C2C(c3ccccc3)OC3(C(=O)c4ccccc4C3=O)C2C(=O)N1c1ccc2c(c1)OCO2 (centres undefined)	> 100
O=C1[C@H]2[C@H](c3ccccc3)NC3(Cc4ccccc4C3)[C@H]2C(=O)N1c1ccc(Cl)c(Cl)c1	> 100
O=C1[C@@H]2C(c3ccccc3)OC3(C(=O)c4ccccc4C3=O)[C@@H]2C(=O)N1c1ccc([N+](=O)[O-])cc1 (some centres undefined)	> 100
Cc1ccc(N2C(=O)[C@@H]3C(c4ccccc4)OC4(C(=O)c5ccccc5C4=O)[C@@H]3C2=O)cc1Cl (some centres undefined)	> 100
O=C1[C@H]2[C@H](c3ccccc3)NC3(C(=O)c4ccccc4C3=O)[C@H]2C(=O)N1c1ccc(Cl)c(Cl)c1	> 100
O=C1[C@@H]2C(c3ccc(Cl)cc3)OC3(C(=O)c4ccccc4C3=O)[C@@H]2C(=O)N1c1ccc(Cl)c(C(F)(F)F)c1 (some centres undefined)	> 100
O=C(c1ccccc1)C1N[C@@H](c2ccccc2)[C@H]2C(=O)N(c3ccc(Cl)c(Cl)c3)C(=O)[C@@H]12 (some centres undefined)	> 100
COc1ccc(N2C(=O)[C@@H]3C(c4ccccc4)OC4(C(=O)c5ccccc5C4=O)[C@@H]3C2=O)cc1 (some centres undefined)	> 100
O=C1[C@@H]2C(c3ccccc3)OC3(C(=O)c4ccccc4C3=O)[C@@H]2C(=O)N1c1ccc(Cl)c(C(F)(F)F)c1 (some centres undefined)	> 100
Cc1ccc(C2OC3(C(=O)c4ccccc4C3=O)[C@@H]3C(=O)N(c4ccc5c(c4)OCO5)C(=O)[C@H]23)cc1 (some centres undefined)	> 100
COc1ccccc1N1C(=O)C2C(c3ccccc3)OC3(C(=O)c4ccccc4C3=O)C2C1=O (centres undefined)	> 100
O=C1[C@H]2[C@@H](C(=O)N1c1ccc(Cl)c(Cl)c1)C1(Cc3ccccc3C1)N[C@H]2c1ccccc1	> 100
O=C(c1ccccc1)C1N[C@@H](c2ccccc2)[C@@H]2C(=O)N(c3ccc(Cl)c(Cl)c3)C(=O)[C@H]12 (some centres undefined)	> 100
